Data reported in ChEMBL document CHEMBL3392926, “Antiprotozoal Activity Profiling of Approved Drugs: A Starting Point toward Drug Repositioning”.
“And” between values parts separate entries of the source, which are not always exact repeats. Identical values can stand only once.

Legend:
Leishmania donovani [1] = test: microbe, parasite or virus in culture; assay type: functional, organism-based, MHOM/ET/67/L82
Trypanosoma cruzi = test: microbe, parasite or virus in culture; assay type: functional, organism-based, Tulahuen C4 (LacZ); conditions: Trypanosoma cruzi, Tulahuen C4 (LacZ), 96 h
[2] = DNDI: Cytotoxicity in Vitro, 96 hour, in primary peritoneal mouse macrophages; assay type: functional, cell-based; conditions: Macrophage
cells [3] = assay type: functional, cell-based; conditions: Mus musculus, NMRI, BalbC or CD1 mice, Macrophage, 96 h
cells [4] = assay type: functional, cell-based; conditions: Rattus norvegicus, L6, 72 h
Leishmania donovani [5] = test: microbe, parasite or virus in culture; assay type: functional, organism-based, MHOM/ET/67/L82; remark: listed apart in the source
[6] = system: Trypanosoma brucei rhodesiense; test: microbe, parasite or virus in culture; assay type: functional, organism-based, STIB 900; conditions: Trypanosoma brucei, STIB 900, 72 h
Plasmodium falciparum = test: microbe, parasite or virus in culture; assay type: functional, organism-based, K1
[7] = Leishmania donovani, MHOM/ET/67/L82, 72 h
[8] = Leishmania donovani, MHOM/ET/67/L82, 96 h
[9] = Plasmodium falciparum, K1, 72 h

IC50 (Leishmania donovani [1]; [7]) [µM]	IC50 (Trypanosoma cruzi) [µM]	IC50 (cells [3]) [µM]	IC50 (cells [4]) [µM]	IC50 (Leishmania donovani [5]; [8]) [µM]	IC50 [6] [µM]	IC50 (Plasmodium falciparum; [9]) [µM]	IC50 (Leishmania donovani [1])	IC50 (Leishmania donovani [5]) [µM]	IC50 (Plasmodium falciparum) [µM]	SMILES	IC50 [2] [µM]
48.6	17.9	> 38.6	43.2	28.2	4.78					COc1cc(N[C@H](C)CCCN)c2ncccc2c1	39.7
2.76	0.19	> 34.8	87	20.7	1.44					CC1CS(=O)(=O)CCC1/N=N/c1ccc([N+](=O)[O-])o1 (configuration not stated)	15.7
0.34	56.7	32.4	10.3	0.31	0.76	0.8				C[C@@H]1[C@H](O)[C@@H](C)/C=C/C=C/C=C/C=C/C=C/C=C/C=C/[C@H](O[C@@H]2O[C@H](O)[C@@H](O)[C@H](N)[C@@H]2O)C[C@@H]2O[C@](O)(C[C@@H](O)C[C@@H](O)[C@H](O)CC[C@@H](O)C[C@@H](O)CC(=O)O[C@H]1C)C[C@H](O)[C@H]2C(=O)O	22.4
1.64	2.49	> 11.2	1.04	9.09	0.8	3.75				Cc1cc(C2CCCCC2)n(O)c(=O)c1 [CICLOPIROX OLAMINE]	20.3
22.4	38.2	6.34	9.97	0.95	7.63	4.1				CC(C)/N=c1\cc2n(-c3ccc(Cl)cc3)c3ccccc3nc-2cc1Nc1ccc(Cl)cc1 [CLOFAZIMINE]	10.7
		87	2.99							Clc1ccccc1C(c1ccccc1)(c1ccccc1)n1ccnc1 [CLOTRIMAZOLE]	32.5
		67.6	15.6							Clc1ccc(COC(Cn2ccnc2)c2ccc(Cl)cc2Cl)cc1 (configuration not stated) [ECONAZOLE]	22.8
		62.7	15.4							Clc1ccc(COC(Cn2ccnc2)c2ccc(Cl)cc2Cl)c(Cl)c1 (configuration not stated) [MICONAZOLE]	23.9
19.8	4.44	> 29.4	8.87		0.01					N=C(N)c1ccc(OCCCCCOc2ccc(C(=N)N)cc2)cc1 [PENTAMIDINE]	7.78
13.7	22	> 29.1	32.3	19.5	7.39	0.08				CCN(CC)CCCCCCNc1cc(OC)cc2c(C)ccnc12 [SITAMAQUINE]	21.4
				> 7.74		1.07	22.4 µM and 9.26 µM	13.1	0.63	Clc1ccc(C(Cn2ccnc2)OCc2ccsc2Cl)c(Cl)c1 (configuration not stated) [TIOCONAZOLE]	51.1
4.33	20	> 97.6	84.6	50.1	69.3	19				Cc1cccc(N(C)C(=S)Oc2ccc3ccccc3c2)c1 [TOLNAFTATE]	
52.9	10.1	24.5	11	> 7.36	1.23	1.48				CN1CCN(CCCN2c3ccccc3Sc3ccc(C(F)(F)F)cc32)CC1 [TRIFLUOPERAZINE]	
79.8	15	28.4	18.5	> 8.51	1.42	2.72				CN(C)CCCN1c2ccccc2Sc2ccc(C(F)(F)F)cc21 [TRIFLUPROMAZINE]	
4.26	32.6	> 67.9	80.6	> 67.9	59.3	7.27				Cc1c(C)c2c(c(C)c1O)CCC(C)(COc1ccc(CC3SC(=O)NC3=O)cc1)O2 (configuration not stated) [TROGLITAZONE]	

SMILES	IC50 (Leishmania donovani [1]; [7]) [µM]	IC50 (Trypanosoma cruzi) [µM]	IC50 (cells [3]) [µM]	IC50 (cells [4]) [µM]	IC50 (Leishmania donovani [5]; [8]) [µM]	IC50 [6] [µM]	IC50 (Plasmodium falciparum; [9]) [µM]	IC50 (Leishmania donovani [1])	IC50 (Leishmania donovani [5]) [µM]	IC50 (Plasmodium falciparum) [µM]	IC50 [2] [µM]
C[C@@H](c1ncncc1F)[C@](O)(Cn1cncn1)c1ccc(F)cc1F [VORICONAZOLE]	> 286	11.2	> 85.9	195	> 85.9	> 286	> 143				
